{
  "source": "paper PMC11674800",
  "about": "“Second-Generation Antipsychotics Induce Metabolic Disruption in Adipose Tissue-Derived Mesenchymal Stem Cells Through an aPKC-Dependent Pathway” (Cells, 2024)",
  "key": {"ADSCs [1]": {"test_system": "ADSCs", "experiment": "Adipogenic differentiation, lipid droplet staining (HCS LipidTox)", "assay_type": "cell-based, human", "details": "5 µM; after three weeks of differentiation", "protocol": "ADSCs were plated at a density of 70,000 cells/well in a 12-well plate using DMEM with 10% FBS. When the cells reached about 90% confluence, the culture medium was removed and substituted with WAT-differentiating medium containing DMEM 10% FBS, insulin (1 μM), dexamethasone (DEXA, 1 μM), IBMX (0.5 mM), and rosiglitazone ([…]). After 3 days of exposure to the differentiating medium, the cells were cultured in a maintenance medium containing only insulin (1 μM) and rosiglitazone (1 μM) for 14 days. The medium was changed every 3 days. The differentiation results were evaluated by staining the cells with HCS LipidTOX™ for neutral lipids (Thermo Fisher Scientific, Waltham, MA, USA) after 21 days. The cells were fixed using 4% paraformaldehyde (PFA, Sigma-Aldrich, SaintLouis, MO, USA) for 15 min at room temperature; then, each well was stained using HCS LipidTox and Hoechst 33342 and incubated at room temperature for 30 min. After this incubation, the cells were washed with water. Images were acquired using fluorescence microscopy (FLoid Cell Imaging Station, Life Technology, Carlsbad, CA, USA) or light microscopy (DMi1, Leica, Wetzlar, Germany) and analyzed using ImageJ software (v 1.52a)."}, "[2]": {"test_system": "PPARG, FABP4, HSL, and LPL", "experiment": "Adipogenic gene expression (real-time PCR)", "assay_type": "cell-based, human", "details": "differentiated cells cotreated with 5 µM", "protocol": "After treatment, RNA was extracted using the phenol/chloroform method (RNAzol, Sigma-Aldrich, Saint Louis, MO, USA) followed by isopropanol precipitation, according to the manufacturer’s instructions. The precipitated RNA was then washed with 75% ice-cold ethanol and resuspended in water. The RNA concentration was measured using NanoDrop 2000. cDNA was synthesized via reverse transcription using recombinant Moloney murine leukemia virus reverse transcriptase (MultiScribe Reverse Transcriptase, Bio-Rad, Hercules, CA, USA) and the iScript cDNA Synthesis Kit (Bio-Rad, Hercules, CA, USA). Gene expression was analyzed using real-time PCR using the SsoAdvanced Universal SYBR Green Supermix Kit (Bio-Rad, Hercules, CA, USA). Relative quantification was calculated using the ΔΔCt method."}, "ADSCs [3]": {"test_system": "ADSCs", "experiment": "Transferrin uptake (clathrin-dependent endocytosis)", "assay_type": "cell-based, human", "details": "16 h treatment; transferrin 5 min", "protocol": "(§1) For INSRβ endocytosis experiments, the cells were stimulated with 50 ng/mL insulin for 15 min. For transferrin endocytosis experiments, the cells were incubated with 25 μg/mL Transferrin Texas Red for 5 min. After treatment, the cells were washed with PBS and fixed with 4% PFA for 10 min at room temperature, followed by an additional PBS wash. The cells were then permeabilized by incubating them with cold HEPES-Triton X-100 buffer for 5 min at 4 °C. After permeabilization, the cells were incubated with primary antibodies for 30 min, followed by incubation with Alexa Fluor 488- or 546-conjugated secondary antibodies (Invitrogen, Waltham, MA, USA) and phalloidin, labeled with either Alexa Fluor 546 or 633 (Invitrogen Waltham, MA, USA) for 30 min. After incubation, coverslips were mounted on glass slides using a mounting medium. Images were acquired using a confocal microscope (Leica TCS SP8, Wetzlar, Germany) and analyzed using ImageJ (v 1.52a) software in order to quantify and analyze the fluorescence signals."}, "ADSCs [4]": {"test_system": "ADSCs", "experiment": "Acidic vesicle quantification (Lysotracker)", "assay_type": "cell-based, human", "protocol": "After treatment, the medium was removed, and the cells were stained with 50 nM Lysotracker Deep Red (Invitrogen, Waltham, MA, USA) and 5 μg/mL Hoechst 33342 (Sigma). Staining was conducted in the dark at 37 °C for 30 min. Fluorescence signals were captured using a FLoid Cell Imaging Station (Life Technology, Carlsbad, CA, USA). The ratio of Lysotracker red signal to blue nuclear signal was quantified using ImageJ software. For acidic vesicle rescue experiments, ADSCs were plated at a concentration of 10,000 cells per well in 48-well plates."}, "ADSCs [5]": {"test_system": "ADSCs", "experiment": "Vacuolization assay", "assay_type": "cell-based, human", "details": "5 μM, 4 h", "protocol": "After 4 h, pictures were acquired using a phase contrast microscope (DMi1, Leica, Wetzlar, Germany)."}, "LC3B": {"test_system": "LC3B", "experiment": "Autophagy induction (LC3B Western blot, LAMP1/LC3B colocalization)", "assay_type": "cell-based, human", "details": "16 h treatment", "protocol": "(§2) After treatments, whole-cell lysates were prepared using RIPA lysis buffer supplemented with protease inhibitors (AEBSF, aprotinin, bestatin, E-64, EDTA, leupeptin, Sigma-Aldrich, Saint Louis, MO, USA) and orthovanadate (Sigma-Aldrich, Saint Louis, MO, USA). The proteins in the lysates were collected and quantified using the Pierce BCA protein assay kit (Thermo Fisher Scientific, Waltham, MA, USA). Subsequently, the proteins were denatured by heating at 95 °C for 5 min in the presence of 2% Sodium Dodecyl Sulfate (SDS, Sigma-Aldrich, Saint Louis, MO, USA), 150 mM dithiothreitol (DTT, Sigma-Aldrich, Saint Louis, MO, USA), and 0.01% bromophenol blue (Sigma-Aldrich, Saint Louis, MO, USA). The samples were then analyzed using SDS-PAGE (SDS-Polyacrylamide Gel Electrophoresis) and Western blotting (WB).\nas §1"}, "PKCζ": {"test_system": "PKCζ", "experiment": "PKC activation (Western blot, P-PKCζ T560 immunofluorescence)", "assay_type": "cell-based, human", "details": "5 μM, 16 h", "protocol": "as §2, §1"}, "ADSCs [6]": {"test_system": "ADSCs", "details": "7 days; 1 to 50 μM"}},
  "data": [
    {"smiles": "Cc1cc2c(s1)Nc1ccccc1N=C2N1CCN(C)CC1", "note": "[olanzapine]", "values": [
      {"measurement": "quantity and average size of lipid droplets", "setting": "ADSCs [1]", "value": "notably decreased"},
      {"measurement": "reduction in lipid accumulation", "setting": "ADSCs [1]", "value": "approximately 30%"},
      {"measurement": "expression of genes related to adipogenesis (PPARG, FABP4, HSL, LPL)", "setting": "[2]", "value": "significantly reduced expression"},
      {"measurement": "short-term transferrin endocytosis", "setting": "ADSCs [3]", "value": "significant reduction"},
      {"measurement": "acidic compartment accumulation (Lysotracker staining)", "setting": "ADSCs [4]", "value": "progressive time- and dose-dependent increase"},
      {"measurement": "concentrations at which acidic compartment accumulation was observed", "setting": "ADSCs [4]", "value": "below 1 µM"},
      {"measurement": "vacuolization induction", "setting": "ADSCs [5]", "value": "absent"},
      {"measurement": "colocalization of LAMP1 with LC3B", "setting": "LC3B", "value": "not observed"},
      {"measurement": "conversion of LC3B-I to LC3B-II", "setting": "LC3B", "value": "not after olanzapine"},
      {"measurement": "canonical PKCs (cPKCs) and atypical PKCζ activation state", "setting": "PKCζ; Western blot", "value": "activation"},
      {"measurement": "increase in nuclear P-PKCζ T560", "setting": "PKCζ; immunofluorescence", "value": 2, "unit": "fold"},
      {"measurement": "effects on cell viability", "setting": "ADSCs [6]", "value": "negligible effects"}
    ]}
  ]
}
